Legend:
[1] = biological target: Cyclooxygenase (Rattus norvegicus) (UniProt P35355+Q63921); settings: at 30 mg/kg
Rattus norvegicus [2] = organism: Rattus norvegicus; experiment: animal or person; format: functional
Rattus norvegicus [3] = organism: Rattus norvegicus; experiment: animal or person; format: functional; remark: listed apart in the source
Rattus norvegicus [4] = organism: Rattus norvegicus; experiment: animal or person; settings: read-out: Inhibition
Rattus norvegicus [5] = organism: Rattus norvegicus; experiment: animal or person; settings: read-out: Inhibition; remark: listed apart in the source
Rattus norvegicus [6] = organism: Rattus norvegicus; experiment: animal or person; settings: read-out: Inhibition; remark: listed apart in the source
[7] = biological target: Prostaglandin G/H synthase 1 (Homo sapiens, UniProt P23219)
in vivo [8] = settings: rat, po, 10 mg/kg
in vivo [9] = settings: rat
Rattus norvegicus [10] = organism: Rattus norvegicus; experiment: animal or person; settings: read-out: Inhibition; remark: listed apart in the source

Prostaglandin G/H synthase 1, sequence (P23219 whole entry): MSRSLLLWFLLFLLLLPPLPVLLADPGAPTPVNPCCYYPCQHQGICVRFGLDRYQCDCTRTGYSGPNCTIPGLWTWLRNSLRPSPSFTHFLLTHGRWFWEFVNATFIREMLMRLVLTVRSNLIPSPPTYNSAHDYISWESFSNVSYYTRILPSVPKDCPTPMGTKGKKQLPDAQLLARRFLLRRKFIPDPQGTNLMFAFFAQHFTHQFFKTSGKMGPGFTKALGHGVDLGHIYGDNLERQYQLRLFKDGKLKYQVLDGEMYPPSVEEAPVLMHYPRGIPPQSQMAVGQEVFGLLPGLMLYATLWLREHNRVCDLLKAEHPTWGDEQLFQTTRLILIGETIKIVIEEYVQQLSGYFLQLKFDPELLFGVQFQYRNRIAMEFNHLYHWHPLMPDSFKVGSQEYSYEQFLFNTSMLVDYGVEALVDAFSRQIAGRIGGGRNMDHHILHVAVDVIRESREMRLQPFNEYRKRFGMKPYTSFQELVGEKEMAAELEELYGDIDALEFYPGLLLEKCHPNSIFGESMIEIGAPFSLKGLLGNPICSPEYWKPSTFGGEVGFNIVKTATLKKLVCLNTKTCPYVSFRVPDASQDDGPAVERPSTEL

Structure (SMILES)	inhibition [1]	ED50 (Rattus norvegicus [2])	inhibition in vivo at 30 mg/kg (Rattus norvegicus [5])	also measured
NS(=O)(=O)c1ccc(C2=C(c3ccc(C(F)(F)F)cc3)CC3(CC3)C2)cc1	46%	46.7 mg/kg	40%	ED50 (Rattus norvegicus [3]): 0.04 mg/kg; inhibition in vivo at 2 mg/kg (Rattus norvegicus [4]): 92%
COc1ccc(C2=C(c3ccc(S(C)(=O)=O)cc3)CC3(CC3)C2)cc1Br	21%			
COc1c(Cl)cc(C2=C(c3ccc(S(C)(=O)=O)cc3)CC3(CC3)C2)cc1Cl	44%	32.7 mg/kg	50%	ED50 (Rattus norvegicus [3]): 0.52 mg/kg; inhibition in vivo at 1 mg/kg (Rattus norvegicus [6]): 57%
CS(=O)(=O)c1ccc(C2=C(c3ccc(C(F)(F)F)cc3)CC3(CC3)C2)cc1	35%			
COc1ccc(C2=C(c3ccc(S(C)(=O)=O)cc3)CC3(CC3)C2)cc1Cl	42%	27.7 mg/kg	45%	inhibition in vivo at 2 mg/kg (Rattus norvegicus [4]): 12%
CS(=O)(=O)c1ccc(C2=C(c3ccc(F)c(F)c3)CC3(CC3)C2)cc1	23%			
COc1ccc(C2=C(c3ccc(S(C)(=O)=O)cc3)CC3(CC3)C2)cc1	0%			
CS(=O)(=O)c1ccc(C2=C(c3ccc(F)cc3)CC3(CCC3)C2)cc1	23%			
COc1ccc(C2=CC3(C=C2c2ccc(S(C)(=O)=O)cc2)CC3)cc1Cl				IC50 [7]: 3380 nM
CS(=O)(=O)c1ccc(C2=C(c3ccc(F)cc3)CCC2)cc1 [SC-57666]				bioavailability (in vivo [8]): 11%; half-life (in vivo [9]): 1.6 h
COc1ccc(C2=C(c3ccc(S(C)(=O)=O)cc3)CC3(CC3)C2)cc1F	30%		19%	inhibition in vivo at 2 mg/kg (Rattus norvegicus [4]): 63%
CS(=O)(=O)c1ccc(C2=C(c3ccc(OC(F)(F)F)cc3)CC3(CC3)C2)cc1	20%			
NS(=O)(=O)c1ccc(C2=C(c3ccc(Cl)c(Cl)c3)CC3(CC3)C2)cc1		31.3 mg/kg		IC50 [7]: 380 nM; inhibition in vivo at 0.3 mg/kg (Rattus norvegicus [10]): 72%
CS(=O)(=O)c1ccc(C2=C(c3ccc(F)cc3)CC3(CC3)C2)cc1	49%		31%	ED50 (Rattus norvegicus [3]): 0.3 mg/kg; bioavailability (in vivo [8]): 58%; half-life (in vivo [9]): 2.3 h; inhibition in vivo at 1 mg/kg (Rattus norvegicus [6]): 68%
CS(=O)(=O)c1ccc(C2=CC3(C=C2c2ccc(F)cc2)CC3)cc1				IC50 [7]: 1320 nM

Further lines, with some results ahead:

inhibition [1]	Structure (SMILES)	ED50 (Rattus norvegicus [2])	inhibition in vivo at 30 mg/kg (Rattus norvegicus [5])	also measured
23%	CS(=O)(=O)c1ccc(C2=C(c3ccc(Cl)c(Cl)c3)CC3(CC3)C2)cc1			
18%	NS(=O)(=O)c1ccc(C2=C(c3ccc(F)c(F)c3)CC3(CC3)C2)cc1			
40%	COc1ccc(C2=C(c3ccc(S(N)(=O)=O)cc3)CC3(CC3)C2)cc1F	40.8 mg/kg	38%	ED50 (Rattus norvegicus [3]): 0.08 mg/kg; inhibition in vivo at 1 mg/kg (Rattus norvegicus [6]): 89%
47%	COc1ccc(C2=C(c3ccc(S(N)(=O)=O)cc3)CC3(CC3)C2)cc1Cl	35.4 mg/kg	47%	ED50 (Rattus norvegicus [3]): 0.21 mg/kg; inhibition in vivo at 1 mg/kg (Rattus norvegicus [6]): 79%
38%	CS(=O)(=O)c1ccc(C2=C(c3ccc(F)c(Cl)c3)CC3(CC3)C2)cc1			
60%	NS(=O)(=O)c1ccc(C2=C(c3ccc(F)cc3)CC3(CC3)C2)cc1	17.6 mg/kg		ED50 (Rattus norvegicus [3]): 0.24 mg/kg; inhibition in vivo at 1 mg/kg (Rattus norvegicus [6]): 85%

Source: ChEMBL document CHEMBL1129290 (J Med Chem, 1996)
